The structures appear in SMILES notation.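 Following 48 hours of exposure in 96-well plates, responses at five concentrations were used to interpolate endpoints linearly. GI50 marks 50% less growth.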 Active and inactive are the calls of the source. No stated cut-off is given here; in the data, active = GI50 up to about 1.1 µM and inactive = higher.

The values below come from ChEMBL document CHEMBL1201862, “PubChem BioAssay data set” (2004).

Test systems include SNB-19; NCI-H522; MDA-MB-231; SR; MDA-MB-435; SK-MEL-28; NCI/ADR-RES; RPMI-8226; A498; HOP-92; OVCAR-3; SW-620; HCT-116; A549; SNB-75; HCT-15; DU-145; CCRF-CEM; EKVX; HT-29.
Assay in all cases: NCI tumour cell line growth inhibition, 48 h

Regarding `O=S(=O)(F)Cc1ccccc1` [PHENYLMETHYLSULFONYLFLUORIDE], the GI50 was > 100 µM (inactive) with SNB-19; 39.1 µM (inactive) in the assay on NCI-H522; > 100 µM (inactive) with MDA-MB-231; > 100 µM (inactive) in the assay on SR; > 100 µM (inactive) in the assay with MDA-MB-435; > 100 µM (inactive) in the assay with SK-MEL-28. Besides, the GI50 with NCI/ADR-RES, in the assay with RPMI-8226, with A498, in the assay on HOP-92, in the assay with OVCAR-3 and with SW-620 was > 100 µM (inactive) in each case. Further, the GI50 in the assay with HCT-116 was > 100 µM (inactive); in the assay with A549, > 100 µM (inactive); in the assay with SNB-75, > 100 µM (inactive); in the assay with HCT-15, above 100 µM; with DU-145, > 100 µM (inactive); with CCRF-CEM it was > 100 µM (inactive). Further, the GI50 with EKVX and with HT-29 was > 100 µM (inactive) in each case.
